Literature values, collected in paper PMC8762078, “An ALS-associated variant of the autophagy receptor SQSTM1/p62 reprograms binding selectivity toward the autophagy-related hATG8 proteins” (The Journal of Biological Chemistry, 2021).
“Also recorded” adds a separate entry of the source.

What was measured:
[1] = biological target: GABARAPL2 (Homo sapiens, UniProt P60520); conditions: ITC, compared with p62 WT-AIM
Source text: A comparison may be drawn between the GABARAPL2/p62 AIM model produced here and the GABARAPL2/UBA5 AIM structure, the only published structure of an AIM-bound GABARAPL2 ([38]). Both involve the formation of an intermolecular β-sheet between the AIM and the β2 strand of GABARAPL2; however, the UBA5 AIM is atypical, and this produces a noncanonical interaction. The UBA5 AIM sequence ([…]) leads to the formation of a binding pocket not observed in the GABARAPL2/p62 AIM model proposed here or in any other hATG8/AIM interaction, due to the spacing of the key residues. The RMSD between these two ...

[2] = test system: motor neurone-like cells
Source text: Autophagy is a central pathway for the removal of aggregated or damaged proteins and organelles and is critical to cellular homeostasis. Deregulation of autophagy is recognized as a pathogenic mechanism contributing to a range of neurodegenerative disorders, including amyotrophic lateral sclerosis (ALS) and frontotemporal lobar degeneration (FTLD) ([1], [2], [3], [4]). These conditions form a disease spectrum (ALS-FTLD) defined primarily by ubiquitinated inclusions of TAR DNA-binding protein-43 kDa in neurones ([5]). The link between ALS-FTLD and autophagy is reinforced by the identification o ... || A clear effect of the ALS-associated L341V mutation of p62/hATG8 interactions has been shown through these in vitro studies, though the impact remains relatively modest with individual interaction affinity alterations of up to approximately twofold. However, the interactions are best contextualized around the tendency for p62 to assemble into nanoscale filaments, which have been amenable to cryo-EM structural characterization (Fig. 6A) ([17], [52]). The N-terminal PB1 domain of p62 assembles into a helical protein scaffold with the flexible C-terminal chain, which carries the AIM and UBA domai ...

Sequence of GABARAPL2 (P60520 whole entry): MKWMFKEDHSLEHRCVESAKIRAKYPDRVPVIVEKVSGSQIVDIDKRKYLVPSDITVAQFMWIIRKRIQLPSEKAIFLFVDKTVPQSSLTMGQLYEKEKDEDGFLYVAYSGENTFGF

WGIELV [UBA5 AIM]
thermodynamic profile of GABARAPL2/UBA5 interaction [1]: more enthalpically driven than the interaction with p62 reported here

p62 L341V: ALS-associated L341V variant of the SQSTM1/p62 autophagy receptor
p62 recruitment into autophagic vesicles [2]: defect in p62 protein recruitment into autophagic vesicles; also recorded: reduction in p62 recruitment to acidic autophagic vesicles
